Experimental findings from patent US11608341B2, “Substituted tetrahydropyrazolo[3,4-d]pyrimidines and tetrahydropyrazolo[4,3-d]pyrimidines as C5A receptor modulators” (Idorsia Pharmaceuticals Ltd., priority 2018, dated 2023) are described below.

This experiment deals with T1, C5AR1 (Homo sapiens, UniProt P21730).
T1 construct: host or cells: CHO-K1
T1 sequence (P21730 1-350): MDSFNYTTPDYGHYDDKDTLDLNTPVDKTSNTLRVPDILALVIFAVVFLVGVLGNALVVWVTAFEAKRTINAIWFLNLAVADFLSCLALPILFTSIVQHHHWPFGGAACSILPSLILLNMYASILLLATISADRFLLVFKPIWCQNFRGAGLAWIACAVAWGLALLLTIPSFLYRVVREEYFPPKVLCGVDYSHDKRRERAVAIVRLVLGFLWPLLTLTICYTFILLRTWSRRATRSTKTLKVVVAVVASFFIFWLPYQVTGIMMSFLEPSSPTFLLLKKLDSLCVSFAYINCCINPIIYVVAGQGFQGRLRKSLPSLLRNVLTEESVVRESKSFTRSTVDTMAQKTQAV
The experiment can be described thus: In vitro assay: antagonism of C5a-induced beta-arrestin recruitment (PathHunter) in CHO-K1 C5AR1 beta-arrestin cell line. In kind it is cell-based. To be noted: antagonistic activity, 1-10 nM C5a agonist, geometric mean where several measurements, read-out: C5aR IC50. On the procedure: 5 μl Antagonist at 6-fold end concentration or DMSO control is added to assay medium and subsequently 5 μl 1-10 nM C5a agonist at 6 fold end concentration. Cells are centrifuged for 1 min at 1000 rpm and incubated for 1.5 hour in at 37° C. Plates are equilibrated at room temperature for several minutes before adding 12 μl/well Detection Reagent (PathHunter Detection Kit, DiscoverX, Cat #93-0001). Plates are centrifuged for 1 min at 1000 rpm and incubated for 45 minutes at RT before being measured on a Fluostar Optima, BMG Labtech. IC50 values are calculated from a serial dilution range of antagonist using inhouse software and given in nmol/l.
The calculated IC50 values may fluctuate depending on the daily cellular assay performance. Fluctuations of this kind are known to those skilled in the art. Average IC50 values from several measurements are given as geometric mean values.

pIC50: −log10 of the molar value.

For the compound `COc1nccc(C)c1N1CCC(N2C(=O)N(Cc3ccccc3C(F)(F)F)c3cn(C)nc3C2C)CC1` (single isomer, unassigned) [Example 298], the pIC50 (in general, the negative decadic logarithm of the IC50, by convention in mol/L) is 7.54.

On to `Cc1cccc(F)c1N1CCC(N2C(=O)N(Cc3ccccc3C(F)(F)F)c3nn(CC(C)(F)F)cc3C2C)CC1` (single isomer, unassigned) [Example 305], for which the pIC50 was 7.80.

`Cc1cccc(F)c1N1CCC(N2C(=O)N(Cc3ccccc3C(F)(F)F)c3nn(CC(C)(F)F)cc3C2C)CC1` (single isomer, unassigned) [Example 306]: the pIC50 is 6.55.

With `Cc1cccc(F)c1N1CCC(N2C(=O)N(Cc3ccccc3C(F)(F)F)c3nn(C4CC4)cc3C2C)CC1` (single isomer, unassigned) [Example 309], the pIC50 is 7.96.

In the case of `Cc1cccc(F)c1N1CCC(N2C(=O)N(Cc3ccccc3C(F)(F)F)c3nn(C4CC4)cc3C2C)CC1` (single isomer, unassigned) [Example 310], the pIC50 was 7.52.

As to `CC1c2cn(C3CC3)nc2N(Cc2ccccc2C(F)(F)F)C(=O)N1C1CCN(c2c(F)cccc2C(F)F)CC1` (single isomer, unassigned) [Example 311], the pIC50 is 7.89.

As to `CC1c2cn(C3CC3)nc2N(Cc2ccccc2C(F)(F)F)C(=O)N1C1CCN(c2c(F)cccc2C(F)F)CC1` (single isomer, unassigned) [Example 312], the pIC50 is 7.14.

In the case of `CC1c2cn(C)nc2N(Cc2ccccc2C(F)(F)F)C(=O)N1C1CCN(c2c(F)cccc2C(F)F)CC1` (single isomer, unassigned) [Example 314], the pIC50 is 8.10.

Take `CC1c2cn(C)nc2N(Cc2ccccc2C(F)(F)F)C(=O)N1C1CCN(c2c(F)cccc2C(F)F)CC1` (single isomer, unassigned) [Example 315]: the pIC50 is 6.44.

In the case of `Cc1cccc(F)c1N1CCC(N2C(=O)N(Cc3ccccc3C(F)(F)F)c3n[nH]cc3C2C)CC1` (single isomer, unassigned) [Example 316], the pIC50 was 8.05.

As for `Cc1cccc(F)c1N1CCC(N2C(=O)N(Cc3ccccc3C3CC3)c3nn(C)cc3C2C)CC1` (single isomer, unassigned) [Example 317], the pIC50 was 7.96.

Turning to `Cc1cccc(F)c1N1CCC(N2C(=O)N(Cc3ccccc3C3CC3)c3nn(C)cc3C2C)CC1` (single isomer, unassigned) [Example 318], the pIC50 was 6.88.

For the compound `CC1c2cn(C)nc2N(Cc2ccccc2C(F)(F)F)C(=O)N1C1CCN(c2c(F)cccc2Cl)CC1` (single isomer, unassigned) [Example 319], the pIC50 is 8.70.

Take `CC1c2cn(C)nc2N(Cc2ccccc2C(F)(F)F)C(=O)N1C1CCN(c2c(F)cccc2Cl)CC1` (single isomer, unassigned) [Example 320]: the pIC50 was 6.49.

Regarding `CC1c2cn(C)nc2N(Cc2ccccc2C2CC2)C(=O)N1C1CCN(c2c(F)cccc2Cl)CC1` (single isomer, unassigned) [Example 321], the pIC50 was 6.71.

Turning to `CC1c2cn(C)nc2N(Cc2ccccc2C2CC2)C(=O)N1C1CCN(c2c(F)cccc2Cl)CC1` (single isomer, unassigned) [Example 322], the pIC50 was 8.52.

`CC1c2cn(C)nc2N(Cc2ccccc2C2CC2)C(=O)N1C1CCN(c2c(F)cccc2C2CC2)CC1` (single isomer, unassigned) [Example 325]: the pIC50 is 7.85.

Regarding `CC1c2cn(C)nc2N(Cc2ccccc2C2CC2)C(=O)N1C1CCN(c2c(F)cccc2C2CC2)CC1` (single isomer, unassigned) [Example 326], the pIC50 was 6.45.

On to `CC1c2nn(C3CC3)cc2N(Cc2ccccc2C(F)(F)F)C(=O)N1C1CCN(c2c(F)cccc2Cl)CC1` (single isomer, unassigned) [Example 327], for which the pIC50 is 6.28.

Turning to `CC1c2nn(C3CC3)cc2N(Cc2ccccc2C(F)(F)F)C(=O)N1C1CCN(c2c(F)cccc2Cl)CC1` (single isomer, unassigned) [Example 328], the pIC50 is 8.00.

`CC1c2nn(C3CC3)cc2N(Cc2ccccc2C(F)(F)F)C(=O)N1C1CCN(c2c(F)cccc2C(F)F)CC1` (single isomer, unassigned) [Example 329]: the pIC50 was 7.74.

With `CC1c2nn(C3CC3)cc2N(Cc2ccccc2C(F)(F)F)C(=O)N1C1CCN(c2c(F)cccc2C(F)F)CC1` (single isomer, unassigned) [Example 330], the pIC50 was 5.85.

In the case of `COc1nccc(C)c1N1CCC(N2C(=O)N(Cc3ccccc3C(F)(F)F)c3nn(C)cc3C2C)CC1` (single isomer, unassigned) [Example 331], the pIC50 was 8.22.

With `COc1nccc(C)c1N1CCC(N2C(=O)N(Cc3ccccc3C(F)(F)F)c3nn(C)cc3C2C)CC1` (single isomer, unassigned) [Example 332], the pIC50 was 6.74.

In the case of `CC1c2cn(C)nc2N(Cc2ccccc2C(F)(F)F)C(=O)N1C1CCN(c2c(F)cccc2C2CC2)CC1` (single isomer, unassigned) [Example 334], the negative-log IC50 (pIC50) is 6.68.

Turning to `CC1c2cn(C3CC3)nc2N(Cc2ccccc2C(F)(F)F)C(=O)N1C1CCN(c2c(F)cccc2Cl)CC1` (single isomer, unassigned) [Example 335], the pIC50 is 7.92.

As for `CC1c2cn(C3CC3)nc2N(Cc2ccccc2C(F)(F)F)C(=O)N1C1CCN(c2c(F)cccc2Cl)CC1` (single isomer, unassigned) [Example 336], the pIC50 is 7.05.

Regarding `CC1c2cn(C3CC3)nc2N(Cc2ccccc2C2CC2)C(=O)N1C1CCN(c2c(F)cccc2Cl)CC1` (single isomer, unassigned) [Example 338], the pIC50 was 6.96.

As to `Cc1cccc(F)c1N1CCC(N2C(=O)N(Cc3ccccc3C3CC3)c3nn(C4CC4)cc3C2C)CC1` (single isomer, unassigned) [Example 339], the pIC50 was 7.92.

Regarding `Cc1cccc(F)c1N1CCC(N2C(=O)N(Cc3ccccc3C3CC3)c3nn(C4CC4)cc3C2C)CC1` (single isomer, unassigned) [Example 340], the pIC50 is 7.17.

Take `COc1nccc(C)c1N1CCC(N2C(=O)N(Cc3ccccc3C(F)(F)F)c3nn(C4CC4)cc3C2C)CC1` (single isomer, unassigned) [Example 344]: the pIC50 was 8.10.

`COc1nccc(C)c1N1CCC(N2C(=O)N(Cc3ccccc3C(F)(F)F)c3nn(C4CC4)cc3C2C)CC1` (single isomer, unassigned) [Example 345]: the pIC50 is 7.46.

As for `COc1nccc(C(F)F)c1N1CCC(N2C(=O)N(Cc3ccccc3C(F)(F)F)c3nn(C)cc3C2C)CC1` (single isomer, unassigned) [Example 346], the pIC50 is 8.15.

In the case of `COc1nccc(C(F)F)c1N1CCC(N2C(=O)N(Cc3ccccc3C(F)(F)F)c3nn(C)cc3C2C)CC1` (single isomer, unassigned) [Example 347], the pIC50 is 6.70.

Take `CC1c2c[nH]nc2N(Cc2ccccc2C(F)(F)F)C(=O)N1C1CCN(c2c(F)cccc2C(F)F)CC1` (single isomer, unassigned) [Example 348]: the negative-log IC50 (pIC50) is 7.96.

Take `CC1c2c[nH]nc2N(Cc2ccccc2C(F)(F)F)C(=O)N1C1CCN(c2c(F)cccc2C(F)F)CC1` (single isomer, unassigned) [Example 349]: the pIC50 is 6.04.

Regarding `CC1c2c[nH]nc2N(Cc2ccccc2C(F)(F)F)C(=O)N1C1CCN(c2c(F)cccc2Cl)CC1` (single isomer, unassigned) [Example 350], the pIC50 is 8.40.

Consider `CC1c2c[nH]nc2N(Cc2ccccc2C(F)(F)F)C(=O)N1C1CCN(c2c(F)cccc2Cl)CC1` (single isomer, unassigned) [Example 351], for which the negative logarithm of the IC50 (pIC50) was 6.11.

Consider `COc1nccc(C(F)F)c1N1CCC(N2C(=O)N(Cc3ccccc3C(F)(F)F)c3n[nH]cc3C2C)CC1` (single isomer, unassigned) [Example 352], for which the pIC50 was 7.96.

In the case of `COc1nccc(C(F)F)c1N1CCC(N2C(=O)N(Cc3ccccc3C(F)(F)F)c3n[nH]cc3C2C)CC1` (single isomer, unassigned) [Example 353], the pIC50 was 6.00.

In the case of `Cc1cccc(F)c1N1CCC(N2C(=O)N(Cc3ncccc3C(F)(F)F)c3nn(C)cc3C2C)CC1` (single isomer, unassigned) [Example 354], the pIC50 is 8.30.

On to `Cc1cccc(F)c1N1CCC(N2C(=O)N(Cc3ncccc3C(F)(F)F)c3nn(C)cc3C2C)CC1` (single isomer, unassigned) [Example 355], for which the pIC50 was 6.53.

On to `COc1nccc(C)c1N1CCC(N2C(=O)N(Cc3ncccc3C(F)(F)F)c3nn(C)cc3C2C)CC1` (single isomer, unassigned) [Example 356], for which the pIC50 is 8.30.

Regarding `COc1nccc(C)c1N1CCC(N2C(=O)N(Cc3ncccc3C(F)(F)F)c3nn(C)cc3C2C)CC1` (single isomer, unassigned) [Example 357], the pIC50 is 6.24.

Consider `COc1nccc(C(F)F)c1N1CCC(N2C(=O)N(Cc3ccccc3C(F)(F)F)c3nn(C4CC4)cc3C2C)CC1` (single isomer, unassigned) [Example 358], for which the pIC50 is 7.92.
